The structures appear in SMILES notation. Calls of active or inactive are those of the source. How the calls were made is not given here.

This data set has as its system CCRIS mutagenicity, Ames/micronucleus/aberration tests. As to the kind of experiment: CCRIS mutagenicity studies.
Where [1] appears, read: Test System: AMES SALMONELLA TYPHIMURIUM, Strain/Indicator: TA98, Metabolic Activation: NONE, Method: PREINCUBATION
Where [2] appears, read: Test System: AMES SALMONELLA TYPHIMURIUM, Strain/Indicator: TA98, Metabolic Activation: RAT, LIVER, S-9, AROCLOR 1254 (10%), Method: PREINCUBATION
Where [3] appears, read: Test System: AMES SALMONELLA TYPHIMURIUM, Strain/Indicator: TA100, Metabolic Activation: NONE, Method: PREINCUBATION
The mark [4] stands for this setting: Test System: AMES SALMONELLA TYPHIMURIUM, Strain/Indicator: TA100, Metabolic Activation: RAT, LIVER, S-9, AROCLOR 1254 (10%), Method: PREINCUBATION
Setting [5] is: Test System: AMES SALMONELLA TYPHIMURIUM, Strain/Indicator: TA100, Metabolic Activation: NONE, Method: STANDARD PLATE.
Setting [6] is: Test System: AMES SALMONELLA TYPHIMURIUM, Strain/Indicator: TA98, Metabolic Activation: NONE, Method: STANDARD PLATE.
The mark [7] stands for this setting: Test System: AMES SALMONELLA TYPHIMURIUM, Strain/Indicator: TA1535, Metabolic Activation: NONE, Method: STANDARD PLATE.
The mark [8] stands for this setting: Test System: AMES SALMONELLA TYPHIMURIUM, Strain/Indicator: TA1537, Metabolic Activation: NONE, Method: STANDARD PLATE.

On to `Oc1ccc(Cl)cc1Cc1ccccc1`, for which the mutagenic call by setting is: (Test System: AMES SALMONELLA TYPHIMURIUM, Strain/Indicator: TA98, Metabolic Activation: HAMSTER, LIVER, S-9, AROCLOR 1254 (10%), Method: PREINCUBATION) “inactive; negative”; under setting [1], “inactive; negative”; under setting [2], “inactive; negative”; (Test System: AMES SALMONELLA TYPHIMURIUM, Strain/Indicator: TA100, Metabolic Activation: HAMSTER, LIVER, S-9, AROCLOR 1254 (10%), Method: PREINCUBATION) “inactive; negative”; under setting [3], “inactive; negative”; under setting [4], “inactive; negative”. For the same compound, the mutagenic call was “inactive; negative” (Test System: AMES SALMONELLA TYPHIMURIUM, Strain/Indicator: TA1535, Metabolic Activation: HAMSTER, LIVER, S-9, AROCLOR 1254 (10%), Method: PREINCUBATION); “inactive; negative” (Test System: AMES SALMONELLA TYPHIMURIUM, Strain/Indicator: TA1535, Metabolic Activation: NONE, Method: PREINCUBATION); “inactive; negative” (Test System: AMES SALMONELLA TYPHIMURIUM, Strain/Indicator: TA1535, Metabolic Activation: RAT, LIVER, S-9, AROCLOR 1254 (10%), Method: PREINCUBATION); “inactive; negative” (Test System: AMES SALMONELLA TYPHIMURIUM, Strain/Indicator: TA1537, Metabolic Activation: HAMSTER, LIVER, S-9, AROCLOR 1254 (10%), Method: PREINCUBATION); “inactive; negative” (Test System: AMES SALMONELLA TYPHIMURIUM, Strain/Indicator: TA1537, Metabolic Activation: NONE, Method: PREINCUBATION); “inactive; negative” (Test System: AMES SALMONELLA TYPHIMURIUM, Strain/Indicator: TA1537, Metabolic Activation: RAT, LIVER, S-9, AROCLOR 1254 (10%), Method: PREINCUBATION).

Take `CC(=C\C1=CCOC1=O)/C=C(C)/C=C/C=C(\C)C(=O)[C@]12O[C@H]1[C@@](O)(CCO)NC2=O`: the mutagenic call under setting [3] was “active; positive”.

With `CCOc1ccc(N(O)C(C)=O)cc1`, the mutagenic call (End Point: IN VITRO MICRONUCLEUS, Test System: RAT KIDNEY FIBROBLAST NRK-49F, Metabolic Activation: NONE) is “active; positive”; the mutagenic call (Test System: AMES SALMONELLA TYPHIMURIUM, Strain/Indicator: TA100, Metabolic Activation: HAMSTER, LIVER, S-9, AROCLOR 1254, Method: LIQUID SUSPENSION) is “active; positive”; the mutagenic call (Test System: AMES SALMONELLA TYPHIMURIUM, Strain/Indicator: TA100, Metabolic Activation: HAMSTER, LIVER, S-9, KANECHLOR 400 (WITHOUT NADPH GENERATING SYSTEM), Method: PREINCUBATION) was “active; positive”; the mutagenic call under setting [3] is “inactive; negative”; the mutagenic call (Test System: AMES SALMONELLA TYPHIMURIUM, Strain/Indicator: TA100, Metabolic Activation: RAT, LIVER, S-9, PCB, Method: LIQUID SUSPENSION) was “active; positive”.

Regarding `O=CC(=C(Cl)Cl)C(Cl)Cl`, the mutagenic call under setting [5] was “active; positive”.

Regarding `CC(=O)Nc1ccc(/C=N/n2nnc3c([nH]c4ccccc43)c2=O)cc1`, the mutagenic call is, setting by setting: (Test System: AMES SALMONELLA TYPHIMURIUM, Strain/Indicator: TA97, Metabolic Activation: NONE, Method: PREINCUBATION) “active; positive”; (Test System: AMES SALMONELLA TYPHIMURIUM, Strain/Indicator: TA97, Metabolic Activation: RAT, LIVER, S-9, AROCLOR 1254 (10%), Method: PREINCUBATION) “active; positive”; under setting [1], “active; positive”; under setting [2], “active; positive”; under setting [3], “active; positive”; under setting [4], “active; positive”. For the same compound, the mutagenic call runs as follows: (Test System: AMES SALMONELLA TYPHIMURIUM, Strain/Indicator: TA102, Metabolic Activation: NONE, Method: PREINCUBATION) “inactive; negative”; (Test System: AMES SALMONELLA TYPHIMURIUM, Strain/Indicator: TA102, Metabolic Activation: RAT, LIVER, S-9, AROCLOR 1254 (10%), Method: PREINCUBATION) “inactive; negative”.

As for `C=C[Si](C)(C)N[Si](C)(C)C=C`, the mutagenic call reads like this: (Test System: AMES SALMONELLA TYPHIMURIUM, Strain/Indicator: TA98, Metabolic Activation: HAMSTER, LIVER, S-9, AROCLOR 1254 (10%), Method: STANDARD PLATE) “inactive; negative”; under setting [6], “inactive; negative”; (Test System: AMES SALMONELLA TYPHIMURIUM, Strain/Indicator: TA98, Metabolic Activation: RAT, LIVER, S-9, AROCLOR 1254 (10%), Method: STANDARD PLATE) “inactive; negative”; (Test System: AMES SALMONELLA TYPHIMURIUM, Strain/Indicator: TA100, Metabolic Activation: HAMSTER, LIVER, S-9, AROCLOR 1254 (10%), Method: STANDARD PLATE) “inactive; negative”; under setting [5], “inactive; negative”; (Test System: AMES SALMONELLA TYPHIMURIUM, Strain/Indicator: TA100, Metabolic Activation: RAT, LIVER, S-9, AROCLOR 1254 (10%), Method: STANDARD PLATE) “inactive; negative”. The mutagenic call by setting is: (Test System: AMES SALMONELLA TYPHIMURIUM, Strain/Indicator: TA1535, Metabolic Activation: HAMSTER, LIVER, S-9, AROCLOR 1254 (10%), Method: STANDARD PLATE) “inactive; negative”; under setting [7], “inactive; negative”; (Test System: AMES SALMONELLA TYPHIMURIUM, Strain/Indicator: TA1535, Metabolic Activation: RAT, LIVER, S-9, AROCLOR 1254 (10%), Method: STANDARD PLATE) “inactive; negative”; (Test System: AMES SALMONELLA TYPHIMURIUM, Strain/Indicator: TA1537, Metabolic Activation: HAMSTER, LIVER, S-9, AROCLOR 1254 (10%), Method: STANDARD PLATE) “inactive; negative”; under setting [8], “inactive; negative”; (Test System: AMES SALMONELLA TYPHIMURIUM, Strain/Indicator: TA1537, Metabolic Activation: RAT, LIVER, S-9, AROCLOR 1254 (10%), Method: STANDARD PLATE) “inactive; negative”. The mutagenic call is “inactive; negative” (Test System: AMES SALMONELLA TYPHIMURIUM, Strain/Indicator: TA1538, Metabolic Activation: HAMSTER, LIVER, S-9, AROCLOR 1254 (10%), Method: STANDARD PLATE); “inactive; negative” (Test System: AMES SALMONELLA TYPHIMURIUM, Strain/Indicator: TA1538, Metabolic Activation: NONE, Method: STANDARD PLATE); “inactive; negative” (Test System: AMES SALMONELLA TYPHIMURIUM, Strain/Indicator: TA1538, Metabolic Activation: RAT, LIVER, S-9, AROCLOR 1254 (10%), Method: STANDARD PLATE); “inactive; negative. reevaluation of results: negative” (Test System: MOUSE LYMPHOMA, Strain/Indicator: L5178Y (TK+/TK-), Metabolic Activation: NONE, Method: SUSPENSION/PLATE); “inactive; negative. reevaluation of results: negative” (Test System: MOUSE LYMPHOMA, Strain/Indicator: L5178Y (TK+/TK-), Metabolic Activation: RAT, LIVER, S-9, AROCLOR 1254, Method: SUSPENSION/PLATE).

Consider `CN1CCN=C(c2ccccc2)c2cc(Cl)ccc21`, for which the mutagenic call under setting [6] was “inactive; negative”; the mutagenic call (Test System: AMES SALMONELLA TYPHIMURIUM, Strain/Indicator: TA98, Metabolic Activation: RAT, LIVER, S-9, AROCLOR 1254, Method: STANDARD PLATE) is “inactive; negative”; the mutagenic call under setting [5] is “inactive; negative”; the mutagenic call (Test System: AMES SALMONELLA TYPHIMURIUM, Strain/Indicator: TA100, Metabolic Activation: RAT, LIVER, S-9, AROCLOR 1254, Method: STANDARD PLATE) is “inactive; negative”; the mutagenic call under setting [7] was “inactive; negative”; the mutagenic call (Test System: AMES SALMONELLA TYPHIMURIUM, Strain/Indicator: TA1535, Metabolic Activation: RAT, LIVER, S-9, AROCLOR 1254, Method: STANDARD PLATE) is “inactive; negative”. The mutagenic call reads like this: under setting [8], “inactive; negative”; (Test System: AMES SALMONELLA TYPHIMURIUM, Strain/Indicator: TA1537, Metabolic Activation: RAT, LIVER, S-9, AROCLOR 1254, Method: STANDARD PLATE) “inactive; negative”.
